Results on 15 molecules are retold here after article PMC7125519 (European Journal of Medicinal Chemistry, 2016).

Series [1] relates to human embryonic lung (HEL) cells. To be noted: HEL cell cultures (Table 5); microscopically detectable alteration of normal cell morphology.
Series [2] concerns human T-lymphocyte (CEM) cells. The following applies: read-out: IC50 CEM; inhibit cell proliferation by 50%; cited from earlier work.
The test system of series [3] is murine leukemia (L1210) cells. The following applies: read-out: IC50 L1210; inhibit cell proliferation by 50%; cited from earlier work.
Series [4] deals with human cervix carcinoma (HeLa) cells. The following applies: read-out: IC50 HeLa; inhibit cell proliferation by 50%; cited from earlier work.
Series [5] relates to immortalized human dermal microvascular endothelial cells (HMEC-1). The series can be described thus: Cytostatic activity, HMEC-1 proliferation. The following applies: HMEC-1, read-out: IC50 HMEC-1, inhibit cell proliferation by 50%. In kind it is cell-based.
The next series deals with TK+ VZV Oka strain. In kind it is cell-based, varicella-zoster virus.
A further series has as its system TK− VZV 07-1 strain. Format: cell-based, varicella-zoster virus.
The next series deals with Human Coronavirus (229E). Format: cell-based. The following applies: read-out: Antiviral activity EC50 Human Coronavirus (229E).

Molecule `Nc1nc2c(ncn2COCCO)c(=O)[nH]1` [Acyclovir] came in with a Minimum cytotoxic concentration in series [1] above 250 µM.

Regarding `CCOP(=O)(OCC)[C@H]1C[C@@H](Cn2ccc(=O)n(C(=O)c3ccccc3)c2=O)ON1C` [cis-11a], the IC50 in series [2], in series [3] and in series [4] was above 200 µM throughout.

As to `CCOP(=O)(OCC)[C@@H]1C[C@@H](Cn2ccc(=O)n(C(=O)c3ccccc3)c2=O)ON1C` [trans-11a], the IC50 in series [2], in series [3] and in series [4] was above 200 µM throughout.

In the case of `NC(=O)c1ncn([C@@H]2O[C@H](CO)[C@@H](O)[C@H]2O)n1` [Ribavirin], in series [1], the Minimum cytotoxic concentration is at least 250 µM.

Turning to `CCOP(=O)(OCC)[C@@H]1C[C@@H](Cn2c(=O)n(C(=O)c3ccccc3)c(=O)c3ccccc32)ON1Cc1ccccc1` (relative stereo) [trans-13a, Diethyl trans-{5-[(3-benzoyl-2,4-dioxo-3,4-dihydroquinazolin-1(2H)-yl)methyl]-2-benzylisoxazolidin-3-yl}phosphonate], the IC50 in series [5] is above 250 µM.

The molecule `Nc1nc(O)c2ncn(COC(CO)CO)c2n1` [Ganciclovir] displayed a Minimum cytotoxic concentration in series [1] above 100 µM.

Consider `CCOP(=O)(OCC)[C@@H]1C[C@@H](Cn2c(=O)n(C(=O)c3ccccc3)c(=O)c3ccccc32)ON1C` [trans-12a], for which, in series [3], the IC50 is at least 159 µM.

Turning to `CCOP(=O)(OCC)[C@H]1C[C@@H](Cn2c(=O)n(C(=O)c3ccccc3)c(=O)c3ccccc32)ON1C` [cis-12a], the IC50 in series [3] and in series [4] was above 200 µM each time.

As for `CCOP(=O)(OCC)C1CC(Cn2c(=O)n(Cc3ccc(F)cc3)c(=O)c3ccccc32)ON1Cc1ccccc1` (stereo not drawn) [trans-15d/cis-15d (95:5)], the “fold less active against the TK+ virus compared to acyclovir” value with TK+ VZV Oka strain was 4–6 fold. For the same molecule, the “fold more active against the TK– strain compared to acyclovir” value with TK− VZV 07-1 strain is listed as 10–14 fold.

`Nc1ccn([C@H]2CC[C@@H](CO)O2)c(=O)n1` [Zalcitabine] displayed a Minimum cytotoxic concentration in series [1] above 250 µM.

As for `Nc1ccn(C[C@@H](CO)OCP(=O)(O)O)c(=O)n1.O.O` [Cidofovir], the Minimum cytotoxic concentration in series [1] was above 250 µM.

Turning to `CCOP(=O)(OCC)C1CC(Cn2c(=O)n(Cc3ccccc3F)c(=O)c3ccccc32)ON1Cc1ccccc1` (stereo not drawn) [cis-15b/trans-15b (87:13)], in the series on TK+ VZV Oka strain, the “fold less active against the TK+ virus compared to acyclovir” value was 4–6 fold. Further, the “fold more active against the TK– strain compared to acyclovir” value in the series on TK− VZV 07-1 strain is 10–14 fold.

`CCOP(=O)(OCC)[C@@H]1C[C@@H](Cn2c(=O)n(C(=O)c3ccc(F)cc3)c(=O)c3ccccc32)ON1C` (relative stereo) [trans-12d, Diethyl trans-{5-[(3-(4-fluorobenzoyl)-2,4-dioxo-3,4-dihydroquinazolin-1(2H)-yl)methyl]-2-methylisoxazolidin-3-yl}phosphonate]: the IC50 in series [5] is above 250 µM. Further, the Minimum cytotoxic concentration in series [1] is at least 100 ± 0 µM.

The molecule `Cc1cn([C@H]2C[C@H](F)[C@@H](CO)O2)c(=O)[nH]c1=O` [Alovudine] showed a Minimum cytotoxic concentration in series [1] above 250 µM.

B1: UDA: Urtica dioica agglutinin (UDA), reference compound (protein, UniProt P11218 24-372, looked up)
Lectin/endochitinase 1: QRCGSQGGGGTCPALWCCSIWGWCGDSEPYCGRTCENKCWSGERSDHRCGAAVGNPPCGQDRCCSVHGWCGGGNDYCSGSKCQYRCSSSVRGPRVALSGNSTANSIGNVVVTEPLFDQMFSHRKDCPSQGFYSYHSFLVAAESFPAFGTIGDVATRKREVAAFLAHISQATSGERSDVENPHAWGLCHINTTTVTENDFCTSSDWPCAAGKKYSPRGPIQLTHNFNYGLAGQAIGEDLIQNPDLVEKDPIISFKTALWFWMSQHDNKPSCHDIVLNANSAANRIPNKGVIGNIISRAFGHDDFAVRSSSIGFYKRYCDMLGVSYGHDLKYWFDNTPSSEFQRIQMRVAA
A word on the EC50: it is the concentration giving half of the maximal effect. Regarding B1, the EC50 in the series with Human Coronavirus (229E) worked out at 0.4 µM. Further, the Minimum cytotoxic concentration in series [1] is at least 100 µM.
